# Source: ChEMBL document CHEMBL1201862, “PubChem BioAssay data set” (2004)
# Calls of active or inactive are those of the source. No stated cut-off is given here; in the data, actives have a measured IC50 and inactives only a lower limit.
# Target: Envelope glycoprotein gp160 (Human immunodeficiency virus 1, UniProt Q6QLK5)
# Assay: cell-free HIV fusion peptide-binding blockers – biochemical, uHTS, fluorescence dequenching, […] (AID 1986)
# Sequence of Envelope glycoprotein gp160 (Q6QLK5 whole entry, the tested form may be a part): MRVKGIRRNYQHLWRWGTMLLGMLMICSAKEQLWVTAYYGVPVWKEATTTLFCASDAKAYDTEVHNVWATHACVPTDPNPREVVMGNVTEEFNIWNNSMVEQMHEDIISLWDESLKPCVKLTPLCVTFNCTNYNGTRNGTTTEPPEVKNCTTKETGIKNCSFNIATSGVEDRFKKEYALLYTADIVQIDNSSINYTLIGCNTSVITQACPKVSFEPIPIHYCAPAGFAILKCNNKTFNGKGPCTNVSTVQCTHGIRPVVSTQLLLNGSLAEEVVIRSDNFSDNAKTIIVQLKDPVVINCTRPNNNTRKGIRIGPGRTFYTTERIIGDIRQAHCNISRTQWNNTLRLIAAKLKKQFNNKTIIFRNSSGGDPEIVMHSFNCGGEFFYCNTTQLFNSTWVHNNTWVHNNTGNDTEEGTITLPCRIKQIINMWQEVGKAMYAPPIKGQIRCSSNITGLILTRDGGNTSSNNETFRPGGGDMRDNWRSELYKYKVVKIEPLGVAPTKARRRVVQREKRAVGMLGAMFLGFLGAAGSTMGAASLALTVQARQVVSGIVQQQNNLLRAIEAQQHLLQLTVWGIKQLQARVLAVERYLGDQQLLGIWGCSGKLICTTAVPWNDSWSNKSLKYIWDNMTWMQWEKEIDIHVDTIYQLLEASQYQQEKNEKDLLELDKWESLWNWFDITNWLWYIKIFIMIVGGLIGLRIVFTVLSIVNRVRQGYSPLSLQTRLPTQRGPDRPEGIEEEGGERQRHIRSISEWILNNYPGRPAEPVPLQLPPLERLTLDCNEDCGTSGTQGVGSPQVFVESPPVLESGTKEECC
row,Compound,IC50
1,COc1ccccc1N1N=C(C(=O)c2ccccc2)C2C(=O)N(c3ccc(Br)cc3)C(=O)C21 (stereo not drawn),14.6 µM (active)
2,Cc1ccc(NS(=O)(=O)c2ccc(N/N=C/c3ccccc3OCC(=O)O)c([N+](=O)[O-])c2)c(C)c1,13.8 µM (active)
3,COc1cc(/C=C2\S/C(=N\c3ccccc3)N(CCc3c[nH]c4ccccc34)C2=O)ccc1OC(C)C(=O)O (stereo not drawn),16.9 µM (active)
